Measured values: the NIST ThermoML archive (doi:10.1016/j.fluid.2006.05.007)

Assay: xn = mol fraction of the nth substance listed
Details: Fluid (supercritical or subcritical phases)

CO [methanol] + O
Details | mass density [kg/m3]
572.91 K, 10085 kPa, x1 = 0.3044 | 77.4
573.08 K, 10068 kPa, x1 = 0.4031 | 79.4
573.15 K, 10080 kPa, x1 = 0.5144 | 83.3
573.26 K, 10081 kPa, x1 = 0.59 | 85.5
573.31 K, 10076 kPa, x1 = 0.7905 | 92.4
573.34 K, 10081 kPa, x1 = 0.8802 | 94.8
573.35 K, 10077 kPa, x1 = 0.6896 | 87.7
573.43 K, 10083 kPa, x1 = 0.0997 | 405
573.46 K, 11526 kPa, x1 = 0.4031 | 107.2
573.49 K, 10078 kPa, x1 = 0.0494 | 679.2
573.52 K, 11527 kPa, x1 = 0.5144 | 108.7
573.63 K, 11542 kPa, x1 = 0.59 | 111.3
573.67 K, 11523 kPa, x1 = 0.6896 | 113.3
573.72 K, 11537 kPa, x1 = 0.0175 | 704.3
573.74 K, 11532 kPa, x1 = 0.7905 | 115.7
573.74 K, 11535 kPa, x1 = 0.8802 | 118.9
573.75 K, 11533 kPa, x1 = 0.007 | 712.1
573.78 K, 11525 kPa, x1 = 0.0997 | 646.8
573.78 K, 11527 kPa, x1 = 0.1971 | 534.3
573.78 K, 11530 kPa, x1 = 0.1484 | 611.5
573.79 K, 11533 kPa, x1 = 0.0494 | 682.1
574.29 K, 20003 kPa, x1 = 0.0997 | 671.8
574.34 K, 20013 kPa, x1 = 0.3044 | 560.2
574.34 K, 20016 kPa, x1 = 0.6896 | 398.6
574.35 K, 20000 kPa, x1 = 0.0494 | 701.9
574.37 K, 19997 kPa, x1 = 0.1484 | 645.8
574.37 K, 20007 kPa, x1 = 0.59 | 431.4
574.37 K, 20014 kPa, x1 = 0.1971 | 617
574.37 K, 20019 kPa, x1 = 0.4031 | 512.2
574.38 K, 20012 kPa, x1 = 0.7905 | 375.2
574.39 K, 20005 kPa, x1 = 0.5144 | 460.1
574.45 K, 20012 kPa, x1 = 0.8802 | 354.5
588.56 K, 13757 kPa, x1 = 0.3044 | 135.3
588.59 K, 13753 kPa, x1 = 0.5144 | 131.6
588.63 K, 13755 kPa, x1 = 0.4031 | 133
588.68 K, 13752 kPa, x1 = 0.7905 | 137.1
588.69 K, 13759 kPa, x1 = 0.59 | 132.6
588.74 K, 13760 kPa, x1 = 0.6896 | 134.8
588.76 K, 13753 kPa, x1 = 0.1971 | 409.6
588.79 K, 13754 kPa, x1 = 0.8802 | 139.5
588.8 K, 13760 kPa, x1 = 0.1484 | 563.2
588.81 K, 13767 kPa, x1 = 0.007 | 679.9
588.83 K, 13755 kPa, x1 = 0.0997 | 606.6
588.84 K, 13753 kPa, x1 = 0.0175 | 672.4
588.85 K, 13755 kPa, x1 = 0.0494 | 647.6
